Results: patent US20230285498A1, “TREATMENTS FOR CANCERS HAVING KRAS MUTATIONS” (City of Hope, priority 2020, published 2023)
Read-outs that look alike come from different tables or passages of the source.

What was measured:
[1] = tested on: SW1573; assay: Cell proliferation assay, 2D (IncuCyte live cell imaging); format: cell-based; settings: SW1573
Description: The cells were seeded at density of 10000 cells/well 12 hours prior to the experiment. Once the cells attached to the plate the media was removed and the drugs were added to the cells. […] Cell proliferation was observed using the IncuCyte Live Imaging System for 72 hrs.
Knockdown of ITGB4 (Cat #SR302473C) at the mRNA level in the SW1573 cells was done using siRNAs purchased from OriGene Technologies (Rockville, Md., USA). JetPRIME transfection reagent (Polyplus Transfection, Illkirch, France) was used to transfect the siRNAs according to the manufacturer's protocol. Cells were seeded in 6-well plates (200,000 cells/well) and allowed to adhere overnight. Next day, 10 nM siRNA was transfected with 4 μl jetPRIME reagent in complete growth medium for each well. Next day cells were trypsinized, counted and re-plated on the 96 well plate for cell proliferation and drug assay. […] Cell growth medium was changed the next day and expression was detected 72 h post-transfection by immunoblotting.
(§1) The cells grown in 2D cultures were treated with various concentrations of the drug, and the effect on cell proliferation was determined in real time using the live cell proliferation assay (IncuCyte, Essen Bioscience, Inc.) as described in the methods.
(§2) Cell proliferation and apoptosis assay: Cell proliferation assays were performed using cell lines stably transfected with NucLight Red Lentivirus (Essen BioScience) to accurately visualize and count the nucleus of a single cell. Cells were seeded on a 96-well plate and allowed to adhere for 24 h. Test compounds were added at indicated concentrations. Caspase-3/7 Green Apoptosis Reagent (Essen BioScience) was also added as a green fluorescent indicator of caspase3/7-mediated apoptotic activity. To monitor cell proliferation and apoptosis over time, the plate was placed in the IncuCyte S3 Live Cell Imaging System (Essen BioScience) and images were acquired every 2 hours. Data analysis was generated by the IncuCyte software using a red fluorescence mask to accurately count each cell nucleus and a green fluorescence mask to measure apoptosis over time. 3D spheroid assay 3D spheroid experiments were performed using cell lines stably transfected with NucLight Red Lentivirus (Essen BioScience) to visualize red fluorescence as an indicator of cell viability. Cells were seeded on a 96-well ultra-low attachment plate and allowed to form spheroids overnight. Drug treatment was added as indicated along with Cytotox Green Reagent (Essen BioScience), used as a green fluorescence indicator of cell death due to loss of cell membrane integrity. To monitor cell proliferation and apoptosis over time, the plate was placed in the IncuCyte S3 Live Cell Imaging System (Essen BioScience) and images were acquired every 2 hours. Data analysis was generated by the IncuCyte software using a red fluorescence mask to accurately measure intensity and area of red fluorescence, indicating spheroid viability and a green fluorescence mask, indicating cell death. Cell cycle analysis.

[2] = tested on: H358 spheroids; assay: 3D spheroid assay; format: cell-based; settings: H358
Description: (§3) The activation of apoptosis is marked with the increase in green fluorescence intensity.
(§4) To determine the sensitivities of the same cells in 3D, mKate expressing cells were used to generate spheroids. Spheroids were monitored in real time using the IncuCyte live cell imaging system (FIG. 1B).
as §2

[3] = tested on: H23 spheroids; assay: 3D spheroid assay; format: cell-based; settings: H23
Description: as §3, §4, §2

[4] = tested on: SW1573 spheroids; assay: 3D spheroid assay; format: cell-based; settings: SW1573
Description: as §3, §4, §2

[5] = tested on: H358; assay: Cell proliferation assay, 2D (IncuCyte live cell imaging); format: cell-based; settings: H358
Description: as §1, §2

[6] = tested on: H23; assay: as above; format: cell-based; settings: H23
Description: as §1, §2

[7] = tested on: H23 cells; assay: Zebrafish larvae H23 xenotransplant; format: in vivo; settings: sotorasib 12 μM, adagrasib 2 μM, carfilzomib 1.6 mM as printed; Day 3
[8] = tested on: SW1573 cells; assay: Zebrafish larvae SW1573 xenotransplant; format: in vivo
Description: The inventors microinjected SW1573 cells into the perivitelline space of 48 hour post-fertilization (hpf) zebrafish larvae.

[9] = tested on: SW1573; assay: Drug combination synergy assay (inhibition matrix); format: cell-based; settings: Homo sapiens
Description: The synergy finder codes were used to determine the synergy between drugs for 48 possible combinations. The codes were run using the R-platform and synergy was calculated and represented as the synergy landscape.
Drug Combination Synergy Assay: For combination index (CI) calculation, SW1573 and H23 incured cell lines were seeded in 96-well plate with 5000 cells per well. Three biological replicates (three 96-well plates for each drug combination) were used. […] The drugs were used in linear dilution series with dilution factor of 2. […] Further, R package called SynergyFinder (He et al., 2018) was used to find the nature of drug-drug interaction (i.e. if they work in synergy or antagonistically or non-interactively). For this purpose, the drug response matrix is supplied to the mentioned package, which then uses several models namely Highest Single Agent (Berenbaum, 1989), Loewe additivity (Loewe, 1953), Bliss independence (Bliss, 1939) and Zero Interaction Potency (Yadav et al., 2015) to quantify the degree of drug synergy. The dose response matrix was used to calculate individual CI values for IC30, IC50 and IC70 drug treatments. The output values were used to plot isobolograms using the following formula. CI=IC50 (A) pair IC50 (A)+IC50 (B) pair IC50 (B)

[10] = tested on: SW1573 NSCLC cells; assay: Mouse SW1573 xenograft; format: in vivo, Athymic nude nu/nu mice
Description: Mouse xenograft studies. Athymic nude nu/nu mice were obtained from Charles River, Wilmington, Mass., and were acclimated for a week before beginning the experiment. All animal experiments were carried out in accordance with a protocol approved by the Institutional Animal Care and Use Committee (IACUC #16004). […] All 40 animals were injected with 1×10^6 SW1573 cells suspensions in 100 μl of PBS, subcutaneously into one flank of each mouse. At the same time, animals were randomized into treatment groups. Treatment was started 12 days after the SW1573 NSCLC cells implantation to see palpable tumor growth. Treatments were given to mice via oral gavage twice a week for 8 weeks. Animals were examined daily for signs of tumor growth. Tumors were measured in two dimensions using calipers and body weights were recorded. Photographs of animals were taken at day 1, day 7, day 14, day 21, day 28, day 35, day 42, day 49, and day 56 after treatment. Photographs of tumors were also taken at day 56 after treatment. At the end of the study, the mice were euthanized by CO2 asphyxiation followed by cervical dislocation. The tumor weights were compared between groups using an unpaired Student's t-test. A portion of the tumor was fixed in 10% buffered formaldehyde solution and paraffin-embedded for immuno-staining or was snap-frozen in liquid nitrogen for further molecular analysis such as western blotting.

[11] = tested on: cisplatin-refractory KRAS mutant NSCLC cells; assay: Sensitization of cisplatin-refractory cells; format: cell-based; settings: read-out: IC50 to sensitize cisplatin-refractory KRAS mutant NSCLC cells
Description: Furthermore, treating NSCLC cell lines that express high levels of ITGB4 and PXN (H358 and H2009) were treated with carfilzomib, H358 cells carrying the KRAS G12C mutation were more sensitive than H2009 cells harboring the G12A mutation. […] Taken together, these observations indicate that treating patients with carfilzomib in addition to targeting mutant KRAS will be more efficacious than carfilzomib treatment alone.

**Q.** For `C=CC(=O)N1CCN(c2ncnc3c(F)c(-c4c(O)cccc4F)c(Cl)cc23)CC1` [ARS1620, (S)-1-(4-(6-chloro-8-fluoro-7-(2-fluoro-6-hydroxyphenyl)quinazolin-4-yl)piperazin-1-yl)prop-2-en-1-one], which inhibition at 10 µM ([1]; Homo sapiens, 10 μM, 72 hours, read-out: inhibition of proliferation / cell growth) is on record?
**A.** Its inhibition at 10 µM is 20%.

**Q.** What about the IC50 ([1]; Homo sapiens, 72 hours, Example 6) of the same molecule?
**A.** Its IC50 is over 10 µM.

**Q.** What about the “reduction of spheroid mean red intensity” value ([2]; 5 μM) of the same molecule?
**A.** Its value is 80%.

**Q.** And the “reduction in spheroid growth” value ([2]; 10 μM)?
**A.** Its value is 70%.

**Q.** What about the “reduction of spheroid mean red intensity” value ([3]; 5 μM) of the same molecule?
**A.** The value was 50%.

**Q.** And the “reduction in spheroid growth” value ([3]; 10 μM)?
**A.** Its value is 70%.

**Q.** And the inhibition at 10 µM ([4]; Homo sapiens, 10 μM, read-out: inhibition of spheroid area / reduction in spheroid growth)?
**A.** The inhibition at 10 µM was about 25%.

**Q.** And the “reduction of spheroid mean red intensity” value ([4]; 5 μM)?
**A.** Its value is 40%.

**Q.** And the “inhibition of cell growth” value ([5]; 2.5, 5 or 10 μM)?
**A.** Its value is 50%.

**Q.** What about the inhibition at 1.2 µM ([5]; Homo sapiens, NCI-H358, 1.2 μM, 72 hours, read-out: inhibition of cell growth) of the same molecule?
**A.** The inhibition at 1.2 µM was 40%.

**Q.** And the “inhibition of cell growth” value ([6]; at 1.2 (unit not given))?
**A.** The value was 30%.

**Q.** And the inhibition at 5 µM ([6]; Homo sapiens, NCI-H23, 5 μM, read-out: inhibition of cell growth)?
**A.** The inhibition at 5 µM was 50%.

**Q.** What about the inhibition at 10 µM ([6]; Homo sapiens, NCI-H23, 10 μM, 72 hours, read-out: inhibition of proliferation / cell growth) of the same molecule?
**A.** The inhibition at 10 µM was 80%.

**Q.** And the IC50 ([6]; Homo sapiens, NCI-H23, 72 hours, Example 6)?
**A.** The IC50 was 7.6 µM.

**Q.** How did the “spheroids inviable (red mean intensity, last time point)” value ([2]; 0.6 μM) turn out when `C=C(F)C(=O)N1CCN(c2nc(OC[C@@H]3CCCN3C)nc3c2CCN(c2cccc4cccc(Cl)c24)C3)C[C@@H]1CC#N` [adagrasib] was run?
**A.** The value was 80%.

**Q.** What about the “spheroids inviable (red mean intensity, last time point)” value ([3]; 0.6 μM) of the same molecule?
**A.** Its value is 40%.

**Q.** And the “better viability compared to untreated spheroids” value ([4]; 0.6 μM)?
**A.** Its value is 50%.

**Q.** For `CC(C)C[C@H](NC(=O)[C@H](CCc1ccccc1)NC(=O)CN1CCOCC1)C(=O)N[C@@H](Cc1ccccc1)C(=O)N[C@@H](CC(C)C)C(=O)[C@@]1(C)CO1` [carfilzomib], which “reduction of tumor growth (median)” value [7] is on record?
**A.** The value was about 82%.

**Q.** And the “effect on cell growth” value ([1]; 20 nM)?
**A.** The value was “slows cell growth”.

**Q.** And the “most effective dose, drug alone (obliterates SW1573 cells)” value [8]?
**A.** The value was 1.6 µM.

**Q.** And the inhibition at 0.01 µM ([9]; carfilzomib 10 nM, 72 hours, read-out: inhibition of growth)?
**A.** Its inhibition at 0.01 µM is 60%.

**Q.** And the “tumor weight compared to control group” value ([10]; end of study (day 56))?
**A.** The value was “significant reduction in tumor weight”.

**Q.** What about the “reduction in tumor area” value ([10]; sotorasib 10 mg/kg, adagrasib 10 mg/kg, carfilzomib 2 mg/kg, oral gavage twice a week, day 56) of the same molecule?
**A.** Its value is about 56%.

**Q.** And the IC50 [11]?
**A.** Its IC50 is 0.0008 µM.

**Q.** With `C[C@@H]1C[C@H](C)CN(S(=O)(=O)c2ccc3c(c2)C(=NO)c2cc(S(=O)(=O)N4C[C@H](C)C[C@H](C)C4)ccc2C3=NO)C1` [tegatrabetan] as the molecule, how does the inhibition at 0.01 µM ([9]; tegatrabetan 10 nM, read-out: inhibition of cell growth) read?
**A.** The inhibition at 0.01 µM was 10%.
